Measured values reported in US6441032B1, “Alpha-(4-Ethoxyphenyl)-N-tert-butylnitrone, pharmaceutical compositions and their medical use” (Centaur Pharmaceuticals, Inc., priority 1997, dated 2002).

Key:
[1] = tested on: Male Sprague-Dawley rats injected with Aβ(25-35) and ibotenate; experiment: Reduction of cognitive defects due to Aβ-peptide/ibotenate (Morris water maze); format: in vivo, Sprague-Dawley rat; conditions: 10 mgl/k by oral gavage daily
Source text: The procedures employed in this example are similar to those described in Dornan et al. NeuroReport 5, 165-168 (1993). Male Sprague-Dawley rats (200-300 g) were weighed and given 10 mgl/k of α-(2-ethoxyphenyl)-N-tert-butylnitrone or 1% methylcellulose by oral gavage. One hour later, the rats were stereotaxically injected into the CA1 region of their hippocampus with 8 nmol of Aβ(25-35) and 6 nmol of ibotenate per side (coordinates from bregma −3.6=AP, ±2.2=ML, −3.0=DV from the top of the dura). Controls were injected with PBS (pH 7.4). All injections were 1.5 μL in volume. The animals receiving PBS were orally dosed with 1% methylcellulose. Oral dosing continued daily until the end of the Morris water maze testing.
Nine to eleven days following injection, animals were tested in a Morris water maze task to measure spatial memory and learning. Animals were given three days of testing with four to six trials per day. The last trial on the fourth day was a probe trial where the platform was removed and time in quadrant and annulae crossings were determined. Following the behavioral testing, animals were perfused with 10% neutral formalin. The brain was post-fixed for 1 week in 10% formalin and then sliced for histological evaluation. Image analysis of cresyl violet staining was used to compare the neuronal loss (lesion volume) in the hippocampus between groups.

MRL/MpJ Fas^lpr mice = experiment: Reduction of cognitive deficits in autoimmune mice (T-maze task); format: in vivo, mouse; conditions: 100 mg/kg oral gavage daily for 8 to 9 weeks, versus untreated mutant mice
Description: MRL/MpJfas^lPr (“mutant mice” or “Fas^lPr”) strains of mice have been described as useful models of Lupus due to their autoimmune lymphoproliferative pathology. In particular, the mutant mice show a cognitive deficit at approximately four months of age, which is not observed at two months of age. See, for example, Forster et al., 1988. Behav. Neural Biology, 49, 139-151.
In the experiment, male MRL/MpJ Fas^lpr and normal MRL/MpJ++mice of 8 weeks of age were weighed and administered 100 mg/kg of the test compound (either α-(2-ethoxyphenyl)-N-tert-butylnitrone or α-(4-ethoxyphenyl)-N-cyclohexylnitrone) or 1% methylcellulose vehicle by oral gavage daily for 8 to 9 weeks. At 4 months of age, the mice were tested for avoidance, discrimination, session criteria and acquisition in a one day T-maze task with a maximum of 25 trials. Criteria was met with four of five trials correct with the last two correct trials being consecutive in avoidance and discrimination.

[2] = tested on: Lewis rats with MBP-induced EAE; experiment: Prevention of MBP-induced experimental allergic encephalomyelitis; format: in vivo, Lewis rat; conditions: 100 mg/kg b.i.d. oral gavage, day 3 to day 16 post-inoculation
Description: Female, Lewis rats of 8 weeks of age (180-250 g) were weighed and then given two intradermal injections (0.1 mL each) of 0.4 mg of M. tuberculin in 0.1 mL incomplete Freunds adjuvant and […] of myelin basic protein in 0.1 mL of saline into the base of the tail. Animals were weighed daily and given a clinical score beginning on Day 8, post inoculation, according to the following criteria:
2.5=Hind limb paralysis and front limb weakness
3.0=Hind and front limb paralysis
4.0=Moribund state or death
On day 3, post-inoculation animals were administered b.i.d either a test compound (100 mg/kg) or 1% methylcellulose vehicle by oral gavage up to and including day 16.

Structure (SMILES)	CNS inflammatory deficit in acute EAE animals [2]	also measured
CCOc1ccccc1C=[N+]([O-])C(C)(C)C [Example 7, α-(2-Ethoxyphenyl)-N-tert-butylnitrone]	did not significantly reduce the CNS inflammatory deficit	Aβ peptide/ibotenate-induced learning deficit [1]: reduced the Aβ peptide/ibotenate-induced learning deficit; acquisition in T-maze task (MRL/MpJ Fas^lpr mice): reduced acquisition values; avoidance in T-maze task (MRL/MpJ Fas^lpr mice): acquired avoidance skills earlier
CC(C)(C)[N+]([O-])=Cc1ccc(OCc2ccccc2)cc1 [Example 41, α-(4-Benzyloxyphenyl)-N-tert-butylnitrone]	reduced the CNS inflammatory deficit	
CCCC[N+]([O-])=Cc1ccc(OCC)cc1 [Example 10, α-(4-ethoxyphenyl)-N-n-butylnitrone]	did not significantly reduce the CNS inflammatory deficit	
CCOc1cc(C=[N+]([O-])C(C)(C)C)ccc1OC [Example 3, α-(3-Ethoxy-4-methoxyphenyl)-N-tert-butylnitrone]	reduced the CNS inflammatory deficit	
CCCCCCCCOc1ccc(C=[N+]([O-])C(C)(C)C)c(F)c1 [Example 29, α-(2-Fluoro-4-octyloxyphenyl)-N-tert-butylnitrone]	did not significantly reduce the CNS inflammatory deficit	
CCOc1ccc(C=[N+]([O-])C(C)(C)C)cc1 [Example 4, α-(4-Ethoxyphenyl)-N-tert-butylnitrone]	did not significantly reduce the CNS inflammatory deficit	
COc1cc(C=[N+]([O-])C(C)(C)C)ccc1OCc1ccccc1 [Example 5, α-(4-Benzyloxy-3-methoxyphenyl)-N-tert-butylnitrone]	did not significantly reduce the CNS inflammatory deficit	
CCOc1ccc(C=[N+]([O-])C2CCCCC2)cc1OC [Example 15, α-(4-Ethoxy-3-methoxyphenyl)-N-cyclohexylnitrone]	did not significantly reduce the CNS inflammatory deficit	
CCOc1cc(C=[N+]([O-])C(C)(C)CC(C)(C)C)ccc1OC [Example 45, α-(3-Ethoxy-4-methoxyphenyl)-N-tert-octylnitrone]	reduced the CNS inflammatory deficit	
[O-][N+](=Cc1ccc(OCc2ccccc2)cc1)C1CCCC1 [Example 42, α-(4-Benzyloxyphenyl)-N-cyclopentylnitrone]	reduced the CNS inflammatory deficit	
CCCCCCOc1ccc(C=[N+]([O-])C2CCCCC2)cc1OCC [Example 22, α-(3-Ethoxy-4hexyloxyphenyl)-N-cyclohexylnitrone]	reduced the CNS inflammatory deficit	
CCOc1ccc(C=[N+]([O-])C2CCCCC2)cc1 [Example 11, α-(4-Ethoxyphenyl)-N-cyclohexylnitrone]	reduced the CNS inflammatory deficit	acquisition in T-maze task (MRL/MpJ Fas^lpr mice): reduced acquisition values; avoidance in T-maze task (MRL/MpJ Fas^lpr mice): acquired avoidance skills earlier
CCOc1cc(C=[N+]([O-])C(C)C)ccc1OC [Example 17, α-(3-Ethoxy-4-methoxyphenyl)-N-isopropylnitrone]	reduced the CNS inflammatory deficit	
